For data set [1], the target named is T1, Plasmodium falciparum bc1 complex cytochrome c reductase (Pfbc1) (Plasmodium falciparum, UniProt Q02768).
T1 construct: Parasite extract was then prepared by disruption with a sonicating probe; endogenous in cells; host or cells: P. falciparum 3D7 blood-stage parasites, saponin-freed and sonicated (crude parasite extract)
T1 sequence (Q02768 1-376): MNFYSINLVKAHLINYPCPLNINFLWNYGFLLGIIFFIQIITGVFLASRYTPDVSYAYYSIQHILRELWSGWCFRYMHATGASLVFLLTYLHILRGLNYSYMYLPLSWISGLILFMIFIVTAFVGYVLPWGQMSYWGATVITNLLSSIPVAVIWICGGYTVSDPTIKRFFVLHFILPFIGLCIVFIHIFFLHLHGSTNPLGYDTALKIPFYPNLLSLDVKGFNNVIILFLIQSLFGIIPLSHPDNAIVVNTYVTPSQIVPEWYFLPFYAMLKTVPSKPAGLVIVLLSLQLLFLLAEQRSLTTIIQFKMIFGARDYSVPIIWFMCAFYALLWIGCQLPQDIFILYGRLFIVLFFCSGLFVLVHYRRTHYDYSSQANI
In words: Pfbc1 native assay (cytochrome c reduction by parasite extract). Type of data set: biochemical. The note with it: compound 1 μM, mean ± s.e.m. of 4 independent experiments. As to the method: Plasmodium falciparum: 3D7 strain was obtained from the Liverpool School of Tropical Medicine. Protease cocktail inhibitor was obtained from Roche. Bradford protein assay dye reagent was obtained from Bio-Rad. All other reagents were obtained from Sigma-Aldrich. Decylubiquinol was produced as per Fisher et al. (Fisher et al. 2004)^21. In brief, 25 mg of decylubiquinone were dissolved in 400 μl of nitrogen-saturated hexane. An equal volume of aqueous 1 M sodium dithionite was added, and the mixture vortexed until colorless. The organic phase containing the decylubiquinol was collected, the solvent was evaporated under N2 and the decylubiquinol finally dissolved in 100 μl of 96% ethanol (acidified with 10 mM HCl). Concentrations of decylubiquinol was determined spectrophotometrically on a Cary 300 Bio UV/visible spectrophotometer (Varian, UK) from absolute spectra, using ε288-320=8.1 mM-1·cm^−1. Decylubiquinol was stored at −80° C. and used within two weeks.
The protocol for the preparation of parasite extract was adapted from Fisher et al. (Fisher et al. 2009)^22. Free parasites were prepared from infected erythrocytes pooled from five T75 flasks, by adding 5 volumes of 0.15% (w/v) saponin in phosphate-buffered saline (137 mM NaCl, 2.7 mM KCl, 1.76 mM K2HPO4, 8.0 mM Na2HPO4, 5.5 mM D-glucose, pH 7.4) for 5 min, followed by three washes by centrifugation in RPMI containing HEPES (25 mM), and a final resuspension in potassium phosphate buffer (50 mM K2HPO4, 50 mM KH2PO4, 2 mM EDTA, pH7.4) containing a protease inhibitor cocktail (Complete Mini; Roche). Parasite extract was then prepared by disruption with a sonicating probe for 5 s, followed by a 1 min rest period on ice to prevent the sample overheating. […] The protein concentration of the parasite extract was determined by Bradford protein assay (Bio-Rad).
Plasmodium falciparum bc1 complex cytochrome c reductase (Pfbc1) activity was measured by monitoring cytochrome c reduction at 550 versus 542 nm using a Cary 300 Bio UV-Visible Spectrophotometer (Varian, UK), using a protocol adapted from Fisher et al. (Fisher et al. 2009)^21-23. […]

Data set [2] in a line: Microsomal metabolic stability, mouse. Type of data set: in vitro ADME. Conditions: for half-life: mouse, liver microsomes. (In general: Liver microsomes are a subcellular fraction often used to study metabolism.)
In data set [3] the test system is P. falciparum strains D6, TM91-C235, W2, C2B. In words: Malaria SYBR Green I-Based Fluorescence (MSF) Assay. The note with it: Plasmodium falciparum. Type of data set: cell-based, Plasmodium falciparum. The essentials: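 Growth inhibition of P. falciparum strains in a microtiter drug sensitivity assay, with parasite proliferation measured as malarial DNA content via SYBR Green I intercalation fluorescence. Strains: drug-sensitive D6, multi-drug resistant TM91-C235, chloroquine-resistant W2, and atovaquone-resistant C2B.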

The mark [4] stands for this setting: D6 strain, read-out: Pf D6 IC50.

Data on two compounds can be found in US11414385B2, “Compounds and methods for treating, detecting, and identifying compounds to treat apicomplexan parasitic diseases” (The University of Chicago, priority 2015, dated 2022).

Like-named read-outs stand apart in the source and are kept apart here.

The inhibition is how much of the control response was suppressed.

`Cc1[nH]c2c(c(=O)c1-c1ccc(Oc3ccccc3)cc1)CCCC2` [MJM170]: the inhibition at 1 µM in data set [1] (read-out: Inhibition of cytochrome c reduction (% atovaquone response)) worked out at 69.7 ± 11.3%. Moreover, the “Mouse microsomal stability T1/2” value in data set [2] came out at 21.0 min. In addition, the results for the half-life in data set [2] (read-out: Mouse liver microsomes T1/2) and in data set [2] (read-out: Mouse microsomal stability T1/2) were 21 min and 20 min, respectively. For the same compound, the IC50 in data set [3] (C2B strain (multi-drug resistant, atovaquone resistant), read-out: P. falciparum IC50) was determined as 10 nM; in data set [3] (C2B strain, read-out: SYBR Green C2B IC50), 10 nM; in data set [3] (D6 strain (drug sensitive), read-out: P. falciparum IC50), 10 nM; in data set [3] (setting [4]) it was 10 nM; in data set [3] (D6 strain, read-out: SYBR Green D6 IC50) it was 10 nM; in data set [3] (TM91C235 strain (multi-drug resistant), read-out: P. falciparum IC50), 30 nM. Also, the IC50 in data set [3] (TM91C235 strain, read-out: SYBR Green C235 IC50) is 30 nM; in data set [3] (W2 strain (chloroquine resistant), read-out: P. falciparum IC50), 30 nM; in data set [3] (W2 strain, read-out: SYBR Green W2 IC50), 30 nM; in data set [3] (wild type and multi-drug resistant, all strains, read-out: IC50 against P. falciparum), under 30 nM.

Regarding `Cc1[nH]c2c(c(=O)c1-c1ccc(Oc3ccc(OC(F)(F)F)cc3)cc1)CCCC2` [JAG21, 2-methyl-3-(4-(4-(trifluoromethoxy)phenoxy)phenyl)-5,6,7,8-tetrahydroquinolin-4(1H)-one], the “Inhibition of cytochrome c reduction (% atovaquone response)” value in data set [1] came to 86.4 ± 3.2 % atovaquone response. The “Mouse microsomal stability T1/2” value in data set [2] is 101 min. Further, the IC50 was 14.3 nM in data set [3] (setting [4]) and 40 to 65 nM in data set [3] (including all drug resistant strains, read-out: inhibitor of Plasmodium falciparum).
